Test [1] can be described thus: ELISA fixation of biotinylated peptides on sensitized plates. Format: binding. Particulars: for EC50: Table 4, read-out: avidity: quantity of peptides necessary to obtain 50% fixation, Chondroitin B; for Kd: read-out: avidity (Kd), quantity of peptides necessary to obtain 50% fixation, Chondroitin B, Table 5. For orientation: ELISA stands for enzyme-linked immunosorbent assay.

Test in test [2]: as above
Format: binding. Particulars: for EC50: Table 4, read-out: avidity: quantity of peptides necessary to obtain 50% fixation, Chondroitin C; for Kd: read-out: avidity (Kd), quantity of peptides necessary to obtain 50% fixation, Chondroitin C, Table 5.

Test in test [3]: as above
Format: binding. The note with it: for EC50: Table 4, read-out: avidity: quantity of peptides necessary to obtain 50% fixation, Chondroitin A; for Kd: read-out: avidity (Kd), quantity of peptides necessary to obtain 50% fixation, Chondroitin A, Table 5.

In another test the test system is DNA. Described as above. The note with it: ELISA plates sensitized with DNA; read-out: avidity: quantity of peptides necessary to obtain 50% fixation, DNA. Format: binding. The protocol:
(§1) The capacity of peptides SEQ ID NO: 1 to 21 to attach themselves to DNA and heparin is evaluated on ELISA plates sensitized with DNA or heparin. Dilutions of biotinylated peptides are deposited on the plates and their fixation is shown using streptavidin conjugated with peroxidase. […] The avidity of each of the peptides for DNA or heparin is evaluated by the quantity (×10^−6 M) of peptides necessary to obtain 50% fixation.

Test in test [4]: as above
Format: binding. Particulars: for EC50: ELISA plates sensitized with heparin, Table 4, read-out: avidity: quantity of peptides necessary to obtain 50% fixation, Heparin; for Kd: read-out: avidity (Kd), quantity of peptides necessary to obtain 50% fixation, Heparin. The protocol:
as §1

In test [5] the test system is H1299 cells. In words: Internalization of biotinylated peptide/S-PO complexes. Format: cell-based, human. The protocol: A biotinylated/S-PO peptide or biotinylated/A-PO complex (A-PO for avidin-peroxidase) is prepared extemporaneously in two ways:
1) either in a peptide: S-PO or A-PO molar ratio of 4:1 (for example, 1.4 μg of peptide with a molecular weight of 3500 to 10 μg of S-PO; the weight of S-PO used varies depending on the peptides since their molecular weights are different).
2) or in a peptide: S-PO or A-PO molar ratio of 25:1 (for example 1.7 μg of peptide with a molecular weight of 3500 to 1 μg of S-PO).
The complexes are prepared by incubating the biotinylated peptide with S-PO or A-PO in PBS in a volume of 5 to 10 μl for 15 minutes at laboratory temperature. They are then diluted in 1 ml of complete culture medium, filtered on a 0.2 micron membrane and incubated with the cells for 4 hours. The cells are then washed three times with PBS.
To study the penetration of the complexes under a microscope, the cells are fixed as before for 15 minutes in ethanol at −20° C., they are washed with PBS, and the activity of the internalized peroxidase is shown by diaminobenzidine in the presence of H2O2. To measure the quantity of peptide/S-PO or A-PO complexes internalized, the cells are trypsinized, transferred into microtubes and counted. They are washed twice by centrifugation, then the residue is suspended in 200 μl of lysis buffer (Tris buffer, 0.1 M, pH8, 0.5% Nonidet). After 15 minutes, the peroxidase contained in the lysis buffer is dosed onto 96-well plates with ortho-dianisidine and H2O2 by comparison with a standard curve for S-PO. The reading is taken at 450 nm. The quantity contained in the different samples is expressed in picograms (pg) per 10^4 cells.
Table 7 below reports the results of evaluating the influence of SEQ ID NO: 1 on the penetration of peptides coupled to SEQ ID NO: 1 into H1299 cells, where
Concentration a: 25 peptides to one molecule of S-PO (1 μg),
Concentration b: 4 peptides to one molecule of S-PO (10 μg).

Test [6] deals with H1299 cells. In words: Internalization of covalent peptide-peroxidase conjugates. Format: cell-based, human. Particulars: for quantity of peptide internalized: 2 hours. The protocol:
To evaluate more directly the penetration of the peptides, avoiding the avidin-peroxidase bias, some of the peptides in sequences SEQ ID NO: 25 to 48 were conjugated covalently with cysteine in the C-terminal position of the peptide to peroxidase. The peptides were coupled with peroxidase in the following way:
One mg of peroxidase activated with maleimide (Sigma) in 100 μl of sodium phosphate buffer, NaCl 0.15 M, EDTA 5 mM, had 1 mg of peptide added to it. After 2 hours at laboratory temperature, β-mercaptoethanol is added to a final concentration of 1.5 mM for 15 minutes. The uncoupled peptide is eliminated by centrifugation on ultrafiltration membranes (cut-off threshold=30,000 Daltons, Sartorius), followed by three washings in sodium phosphate buffer 0.1 M, pH 7.4 containing 0.15 M NaCl.
The H1299 cells are incubated for 2 hours with the conjugates at increasing concentrations of peptide-peroxidase in the culture medium, then washed with PBS. The cells are lysed and the quantity of peptide internalized is evaluated by the dosage of peroxidase in the lysate of the cells with reference to a curve established with peptide-peroxidase.
The quantity of peptide internalized (pg/10^3 cells), depending on the concentrations of conjugates in the culture medium, is shown in Table 8 below.
It appears that the higher the concentration of peptide-peroxidase conjugate in the culture medium, the more the quantity internalized increases. To compare the penetration of the conjugates by cell type, the cells from different lines were incubated with 0.2 μg/ml of peptide-peroxidase conjugate for 2 hours, and the quantity of peroxidase dosed in the lysates. Table 9 and Table 9B below give the results expressed in pg/10^3 cells. The quantity of each peptide internalized in the different lines generally varies only from single to double.

The mark [7] stands for this setting: Conc. a: 25 peptides to one molecule of S-PO (1 μg).
Where [8] appears, read: Conc. b: 4 peptides to one molecule of S-PO (10 μg).

Like-named read-outs stand apart in the source and are kept apart here. Marks after values point to notes of the source that are not given here. Where only a bound is given, the exact number is not on record here.

Regarding GRPRESGKKRKRKRLKP [compound 21], the EC50 in test [1] worked out at 120 nM; in test [2], 120 nM; in test [3], 120 nM; in the test with DNA it was 200 nM; in test [4] it was 70 nM.
On to KSRK [compound 18], for which the EC50 in test [1] is above 134000 nM; in test [2], above 134000 nM; in test [3], above 134000 nM; in the test with DNA, above 134000 nM; in test [4], above 134 nM.
For KSRKKSRK [compound 19], the EC50 (in test [1]; in test [2]; in test [3]; in the test on DNA; in test [4]) was above 74000 nM each time.
For the substance LRKRLLRD [compound 17], the EC50 (in test [1]; in test [2]; in test [3]; with DNA; in test [4]) was above 150000 nM in each case.
As to LRRERQSRLRRERSQSR [SEQ ID NO: 39], the Kd in test [1], in test [2], in test [3] and in test [4] (Table 5) was 100 nM each time.
In the case of RGVRPRVTRMDVRHVRPRVTRMDV [compound 15], the EC50 in test [1] was 4000 nM; in test [2], 5000 nM; in test [3] it was 200 nM; in the test on DNA, 3000 nM; in test [4], above 30000 nM.
For “RHVRPRVTRMDVVKRGLKLRHVRPRVTRMDV [compound 16]” the same measures were 9 nM, 2 nM, 12 nM, 19 nM and 24 nM.
Turning to RKGFYKRKQCKP [SEQ ID NO: 20], the Kd in test [1] came out at 40 nM; in test [2] it was 100 nM; in test [3], 60 nM; in test [4] (Table 5) it was 70 nM. This substance also registered a S-PO internalized in the test with H1299 cells [5] (peptide: S-PO complexes of 4:1, peptide concentration of 1 μg) of 431 pg/10^4 cells.
RKGFYKRKQCKP [compound 20]: the EC50 in test [1] amounted to 40 nM; in test [2], 100 nM; in test [3], 60 nM; with DNA, 90 nM; in test [4], 70 nM.
Turning to RKKRRRGDRKKRRRGD [SEQ ID NO: 28], the “percentage of quantity of peroxidase internalized compared to quantity deposited” value is “(0.006)* %” in the test with H1299 cells [6] (0.01 μg/ml), “(1.6) %” in the test on H1299 cells [6] (0.1 μg/ml), “(7.6) %” with H1299 cells [6] (0.5 μg/ml) and “(8.8) %” in the test with H1299 cells [6] (1 μg/ml). Besides, the “quantity of peptide internalized” value in the test on H1299 cells [6] (peptide-peroxidase 0.01 μg/ml) is on record as 0.006 pg/10^3 cells; with H1299 cells [6] (peptide-peroxidase 0.1 μg/ml), 1.7 pg/10^3 cells; in the test with H1299 cells [6] (peptide-peroxidase 0.5 μg/ml), 37.9 pg/10^3 cells; in the test with H1299 cells [6] (peptide-peroxidase 1 μg/ml), 8860 pg/10^3 cells. Further, the “avidity (Kd), quantity of peptides necessary to obtain 50% fixation, Heparin” value in test [4] (Table 5) is “lost its affinity for heparin”. For the same substance, the Kd in test [4] (Table 5) was determined as 407 nM.
Regarding RQKYNKRAMDY [compound 4], the EC50 was 6200 nM in test [1]; 5000 nM in test [2]; 5600 nM in test [3]; 4000 nM with DNA; 5000 nM in test [4].
As to “SEQ ID NO: 15: twice the CDR3 region peptide of anti-DNA human monoclonal antibody NE-1 (RGVRPRVTRMDVRHVRPRVTRMDV; listed as Homo sapiens)”, the S-PO internalized in the test with H1299 cells [5] (setting [7]) is reported as 250 pg/10^4 cells; in the test on H1299 cells [5] (setting [8]) it was 6670 pg/10^4 cells.
The matching figures for “SEQ ID NO: 16: inclusion, in position 13-19, of SEQ ID NO: 1 in SEQ ID NO: 15 (RHVRPRVTRMDVVKRGLKLRHVRPRVTRMDV; listed as Homo sapiens)”: 430 pg/10^4 cells and 5220 pg/10^4 cells.
As for TYYSDTVKGRFTRQKYNKRA [compound 6], the EC50 in test [1] came out at 250 nM; in test [2], 220 nM; in test [3] it was 240 nM; in the test with DNA, 190 nM; in test [4] it was 160 nM.
The matching figures for VKRGLKL [compound 1]: above 100000 nM, above 100000 nM, above 100000 nM, above 100000 nM and above 100000 nM.
For VKRGLKLRQKYNKRAMDY [compound 5] the same measures were 110 nM, 110 nM, 130 nM, 110 nM and 110 nM.
For VKRGLKLTYYSDTVKGRFTRQYNKRA [compound 7] the same measures were 40 nM, 60 nM, 60 nM, 50 nM and 50 nM.
As to VKRGLKLVKRGLKL [compound 2], the EC50 in test [1] stood at 600 nM; in test [2], 550 nM; in test [3], 550 nM; with DNA it was 2200 nM; in test [4], 760 nM.
On to VKRGLKLVKRGLKLVKRGLKL [compound 3], for which the EC50 in test [1] worked out at 41 nM; in test [2] it was 35 nM; in test [3] it was 37 nM; in the test on DNA, 50 nM; in test [4], 41 nM.
Take VKRGLKLVRRSGRVVVPAAPRNRD [compound 9]: the EC50 in test [1] is 500 nM; in test [2], above 8000 nM; in test [3], 17 nM; in the test with DNA, 3700 nM; in test [4], 3700 nM.
With VRRSGRVVVPAAPRNRD [compound 8], the EC50 (in test [1]; in test [2]; in test [3]; with DNA; in test [4]) was above 150000 nM throughout.
